The results in this text go back to patent US4554287A, “Antihypertensive 7-[2-(dialkylamino)ethyl]-4-hydroxy-1,3-benzimidazol-2-ones” (Smithkline Beckman Corporation, priority 1984, dated 1985).

For orientation: EC50 means the concentration needed to bring the measured effect to its halfway point.

Where two headings read alike, the source gives them in different places.

Assay [1] concerns the target T1, D2 -receptors (Oryctolagus cuniculus, UniProt G1T1Q0).
T1 construct: perfused rabbit ear artery test; from tissue; host or cells: perfused rabbit ear artery (sympathetic nerve terminals)
Put plainly: perfused rabbit ear artery test for D2-agonist activity. The source says:
In the perfused rabbit ear artery test for D2 -agonist activity [J. P. Hieble et al., Arch.

In assay [2] the test system is D2 -receptors. As to the kind of experiment: D2-agonist activity (test not specified). Conditions: presynaptic dopaminergic receptors on sympathetic nerve terminals. The source says:
Otherwise speaking, the main locus of action is at the presynaptic dopaminergic receptors or sympathetic nerve terminals which may also be called "D2 -receptors." Activation of the D2 -receptors on the sympathetic nerve terminals inhibits the release of norepinephrine, thereby inhibiting the increases in cardiac rate and the peripheral vasoconstriction resulting from stimulation of the sympathetic nervous system. These are beneficial cardiovascular actions in those conditions involving excessive or inappropriate levels of sympathetic nervous system stimulation.

T1 sequence (G1T1Q0 1-443): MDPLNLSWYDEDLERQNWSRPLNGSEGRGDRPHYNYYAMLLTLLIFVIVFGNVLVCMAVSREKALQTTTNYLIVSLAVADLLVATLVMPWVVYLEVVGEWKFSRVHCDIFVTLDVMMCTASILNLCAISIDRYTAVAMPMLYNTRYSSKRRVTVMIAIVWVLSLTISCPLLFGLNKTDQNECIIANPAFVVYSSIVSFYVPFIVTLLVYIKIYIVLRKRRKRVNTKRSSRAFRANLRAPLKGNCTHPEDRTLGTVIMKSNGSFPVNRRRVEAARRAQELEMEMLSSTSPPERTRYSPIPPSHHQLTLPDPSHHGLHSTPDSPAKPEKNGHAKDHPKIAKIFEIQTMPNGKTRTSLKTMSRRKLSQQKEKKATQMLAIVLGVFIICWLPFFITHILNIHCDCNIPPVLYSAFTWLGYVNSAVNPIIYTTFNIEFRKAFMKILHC

Take `CCCN(CCC)CCc1ccc(O)c2[nH]c(=O)[nH]c12` [7-[2-(N,N-di-n-propylamino)ethyl]-4-hydroxy-1,3-benzimidazol-2-one]: the EC50 on D2 -receptors [1] (perfused rabbit ear artery, D2 -agonist activity, read-out: EC50) was about 9 nM. In addition, in the assay on D2 -receptors [2], the “D2 -agonist activity (in words)” value was “peripheral D2 -agonists”. `CCCN(CCC)CCc1ccc(O)c(O)c1` [N,N-di-n-propyldopamine, reference compound] returned an EC50 at D2 -receptors [1] of 50 to 60 nM.
